Assays:
Zymoseptoria tritici = assay: Leaf blotch of wheat (SEPTTR) disease control on wheat seedlings; assay type: in vivo; design: key to SEPTTR 1DP, HV activity at 100 ppm (% control rating) / SEPTTR 3DC, HV activity at 100 ppm (% control rating) / SEPTTR disease control, 1DP / SEPTTR disease control, 3DC / SEPTTR 1DP disease control rating, HV activity / SEPTTR 3DC disease control rating, HV activity / SEPTTR 3DC, LV activity at 125.1 g/H (% Control rating) / SEPTTR 1DP, LV activity at 125.1 g/H (% Control rating) / SEPTTR 1DP disease control rating, LV activity at 125.1 g/H / SEPTTR 3DC disease control rating, LV activity at 125.1 g/H / SEPTTR 3DC disease control rating, HV activity at 100 ppm / SEPTTR 1DP disease control rating, HV activity at 100 ppm / HV activity at 100 ppm SEPTTR 3DC (disease control rating) / HV activity at 100 ppm SEPTTR 1DP (disease control rating) / LV activity at 125.1 g/H SEPTTR 1DP (disease control rating) / LV activity at 125.1 g/H SEPTTR 3DC (disease control rating): A: > 80; B: ≤ 80; C: Not Tested; D: No Activity Observed in the Reported Assay; conditions: HV application at 100 ppm, wheat leaf blotch; for SEPTTR 1DP disease control rating, HV activity: 1 Day Protectant; for SEPTTR 3DC disease control rating, HV activity: 3 Day Curative
Puccinia triticina = assay: Wheat brown rust (PUCCRT) disease control on wheat seedlings; assay type: in vivo; design: key to PUCCRT 3DC, HV activity at 100 ppm (% control rating) / PUCCRT disease control, 3DC / PUCCRT 1DP disease control rating, HV activity / PUCCRT 3DC disease control rating, HV activity / PUCCRT 3DC, LV activity at 125.1 g/H (% Control rating) / PUCCRT 1DP, LV activity at 125.1 g/H (% Control rating) / PUCCRT 3DC disease control rating, LV activity at 125.1 g/H / PUCCRT 1DP disease control rating, LV activity at 125.1 g/H / PUCCRT 3DC disease control rating, HV activity at 100 ppm / PUCCRT 1DP disease control rating, HV activity at 100 ppm / HV activity at 100 ppm PUCCRT 3DC (disease control rating) / LV activity at 125.1 g/H PUCCRT 1DP (disease control rating) / LV activity at 125.1 g/H PUCCRT 3DC (disease control rating): A: > 80; B: ≤ 80; C: Not Tested; D: No Activity Observed in the Reported Assay; conditions: HV application at 100 ppm, wheat brown rust; for PUCCRT 1DP disease control rating, HV activity: 1 Day Protectant; for PUCCRT 3DC disease control rating, HV activity: 3 Day Curative

SMILES	SEPTTR 1DP disease control rating, HV activity (Zymoseptoria tritici)	SEPTTR 3DC disease control rating, HV activity (Zymoseptoria tritici)	PUCCRT 1DP disease control rating, HV activity (Puccinia triticina)	PUCCRT 3DC disease control rating, HV activity (Puccinia triticina)
CCC(CC)[C@@H](Oc1cccc(Cl)c1)[C@H](C)OC(=O)[C@@H](NC(=O)c1nccc(OC)c1O)C(C)C [Cmpd 406]	B (≤ 80)	B (≤ 80)	B (≤ 80)	B (≤ 80)
CCC(CC)[C@@H](Oc1ccc(Cl)cc1)[C@H](C)OC(=O)[C@@H](NC(=O)c1nccc(OC)c1O)C(C)C [Cmpd 407]	B (≤ 80)	D	B (≤ 80)	B (≤ 80)
CCC(CC)[C@@H](Oc1ccc(Cl)cc1Cl)[C@H](C)OC(=O)[C@@H](NC(=O)c1nccc(OC)c1O)C(C)C [Cmpd 408]	B (≤ 80)	D	B (≤ 80)	D
CCC(CC)[C@@H](Oc1cc(F)ccc1F)[C@H](C)OC(=O)[C@@H](NC(=O)c1nccc(OC)c1O)C(C)C [Cmpd 409]	D	D	B (≤ 80)	B (≤ 80)
CCC(CC)[C@@H](Oc1cc(F)cc(Cl)c1)[C@H](C)OC(=O)[C@@H](NC(=O)c1nccc(OC)c1O)C(C)C [Cmpd 410]	B (≤ 80)	B (≤ 80)	A (> 80)	B (≤ 80)
CCC(CC)[C@@H](Oc1ccccc1Cl)[C@H](C)OC(=O)[C@@H](NC(=O)c1nccc(OC)c1O)C(C)C [Cmpd 411]	B (≤ 80)	B (≤ 80)	A (> 80)	D
CCC(CC)[C@@H](Oc1ccc(C(F)(F)F)cc1)[C@H](C)OC(=O)[C@@H](NC(=O)c1nccc(OC)c1O)C(C)C [Cmpd 412]	B (≤ 80)	B (≤ 80)	B (≤ 80)	D
CCC(CC)[C@@H](Oc1cccc(-c2ccccc2)c1)[C@H](C)OC(=O)[C@@H](NC(=O)c1nccc(OC)c1O)C(C)C [Cmpd 413]	B (≤ 80)	D	B (≤ 80)	D
CCC(CC)[C@@H](Oc1ccc(-c2ccccc2)cc1)[C@H](C)OC(=O)[C@@H](NC(=O)c1nccc(OC)c1O)C(C)C [Cmpd 414]	A (> 80)	B (≤ 80)	B (≤ 80)	B (≤ 80)
C=C[C@H](C)[C@@H](Oc1ccccc1)[C@H](C)OC(=O)[C@H](C)NC(=O)c1nccc(OC)c1O [Cmpd 415]	A (> 80)	A (> 80)	A (> 80)	A (> 80)
CCCOC(CC)C(Oc1ccccc1)C(C)OC(=O)C1(NC(=O)c2nccc(OC)c2O)CC1 (stereo not shown) [Cmpd 416]	B (≤ 80)	D	B (≤ 80)	D
CCCOC(CC)C(Oc1ccccc1)C(C)OC(=O)C(C)(C)NC(=O)c1nccc(OC)c1O (stereo not shown) [Cmpd 417]	D	B (≤ 80)	D	D
CCOc1ccnc(C(=O)N[C@@H](C)C(=O)O[C@@H](C)[C@H](Oc2ccccc2)C(C)C)c1O [Cmpd 418]	B (≤ 80)	D	B (≤ 80)	A (> 80)
CCC(CC)[C@H](Oc1cccc(F)c1)[C@H](C)OC(=O)[C@H](C)NC(=O)c1nccc(OC)c1O [Cmpd 419]	B (≤ 80)	B (≤ 80)	A (> 80)	D
CCC(CC)[C@H](Oc1ccc(Cl)cc1)[C@H](C)OC(=O)[C@H](C)NC(=O)c1nccc(OC)c1O [Cmpd 420]	A (> 80)	B (≤ 80)	B (≤ 80)	B (≤ 80)
CCC(CC)[C@H](Oc1ccc(Cl)cc1Cl)[C@H](C)OC(=O)[C@H](C)NC(=O)c1nccc(OC)c1O [Cmpd 421]	B (≤ 80)	D	B (≤ 80)	D
CCC(CC)C(Oc1cc(F)ccc1F)C(C)OC(=O)C(C)NC(=O)c1nccc(OC)c1O (stereo not shown) [Cmpd 422]	A (> 80)	B (≤ 80)	A (> 80)	B (≤ 80)
CCC(CC)C(Oc1cc(F)cc(Cl)c1)C(C)OC(=O)C(C)NC(=O)c1nccc(OC)c1O (stereo not shown) [Cmpd 423]	A (> 80)	A (> 80)	A (> 80)	B (≤ 80)
CC(NC(=O)c1ncccc1O)C(=O)OC(C)C(Oc1ccccc1)C(C)C (stereo not shown) [Cmpd 424]	A (> 80)	A (> 80)	A (> 80)	A (> 80)
CC(NC(=O)c1nccc(Cl)c1O)C(=O)OC(C)C(Oc1ccccc1)C(C)C (stereo not shown) [Cmpd 425]	D	D	B (≤ 80)	D
CCC(CC)C(Oc1cccc(F)c1)C(C)OC(=O)C(CC(C)C)NC(=O)c1nccc(OC)c1O (stereo not shown) [Cmpd 426]	D	D	B (≤ 80)	D
CCC(CC)C(Oc1ccc(Cl)cc1)C(C)OC(=O)C(CC(C)C)NC(=O)c1nccc(OC)c1O (stereo not shown) [Cmpd 427]	D	D	B (≤ 80)	D
CCC(CC)C(Oc1cc(F)ccc1F)C(C)OC(=O)C(CC(C)C)NC(=O)c1nccc(OC)c1O (stereo not shown) [Cmpd 428]	D	D	B (≤ 80)	D
CCC(CC)C(Oc1cc(F)cc(Cl)c1)C(C)OC(=O)C(CC(C)C)NC(=O)c1nccc(OC)c1O (stereo not shown) [Cmpd 429]	B (≤ 80)	D	B (≤ 80)	D
CCC(CC)C(Oc1ccc(Cl)cc1Cl)C(C)OC(=O)C(CC(C)C)NC(=O)c1nccc(OC)c1O (stereo not shown) [Cmpd 430]	D	D	B (≤ 80)	D
COc1ccnc(C(=O)NC(C)C(=O)OC(C)C(OC(=O)c2ccccc2)C(C)C)c1O (stereo not shown) [Cmpd 431]	D	D	A (> 80)	D
COc1ccnc(C(=O)NC(C)C(=O)OC(C)C(Oc2cccc(Cl)c2)C(C)C)c1O (stereo not shown) [Cmpd 432]	A (> 80)	D	A (> 80)	B (≤ 80)
COc1ccnc(C(=O)NC(C)C(=O)OC(C)C(Oc2cccc(C(F)(F)F)c2)C(C)C)c1O (stereo not shown) [Cmpd 433]	D	D	A (> 80)	A (> 80)
